Columns and labels:
SHMT1 = target: T1, SHMT1 (Homo sapiens, UniProt P34896); assay: Spectrophotometric quinonoid-intermediate competitive binding assay on purified recombinant SHMT1; assay type: biochemical; conditions: purified SHMT1 5.5 μM, glycine 3.0 mM, 20 μM H4PteGlu, read-out: estimated inhibition constants (IC50)
T1 construct: made in house
T1 sequence (P34896 1-483): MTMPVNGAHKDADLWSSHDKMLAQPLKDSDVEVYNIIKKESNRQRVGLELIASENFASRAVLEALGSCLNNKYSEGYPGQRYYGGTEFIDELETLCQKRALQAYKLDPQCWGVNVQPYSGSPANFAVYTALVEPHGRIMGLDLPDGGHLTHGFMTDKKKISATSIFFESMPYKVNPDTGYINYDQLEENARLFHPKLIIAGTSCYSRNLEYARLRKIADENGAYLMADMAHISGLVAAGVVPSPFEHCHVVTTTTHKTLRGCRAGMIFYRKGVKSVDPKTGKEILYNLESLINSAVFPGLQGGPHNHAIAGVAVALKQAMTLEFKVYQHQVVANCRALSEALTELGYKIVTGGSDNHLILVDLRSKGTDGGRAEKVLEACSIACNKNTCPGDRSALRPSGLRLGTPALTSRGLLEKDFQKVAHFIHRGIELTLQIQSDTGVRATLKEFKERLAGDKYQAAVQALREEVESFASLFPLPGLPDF
Method: (§1) Initially, compounds 2.2 and 2.12 (Figure 1) were tested on purified recombinant SHMT1 and SHMT2 isoforms using a spectrophotometric assay, in which the inhibitors and H4PteGlu compete for binding to the same site of the enzyme. Both isozymes (5.5 μM) were incubated with a saturating concentration of glycine (3.0 mM), in the presence of 20 μM H4PteGlu and a varying concentration of either compound 2.12 or 2.2. The activity of the enzyme was calculated from the spectrophotometric measurement of the quinonoid intermediate that develops when both glycine and H4PteGlu bind to SHMT [20]. […]
(§2) Figure 2 Activity inhibition on purified SHMTs by compound 2.12 The activity of cytosolic (black symbols) and mitochondrial (red symbols) SHMT isoforms was measured in the presence of increasing concentrations of compound 2.12. […]
(§3) Inhibition of SHMT activity by compound 2.12 was tested using competitive binding assays in which the antifolate competes for binding with H4PteGlu. […] Therefore, absorbance at 500 nm is proportional to the fraction of enzyme present as ternary complex. […] The effect of DMSO concentration on quinonoid development was analysed and found to be negligible up to 20% DMSO (v/v). […] After a rapid manual mixing, the absorbance change at 500 nm was measured. […]

SHMT2 = target: T2, SHMT2 (Homo sapiens, UniProt P34897); assay: Spectrophotometric quinonoid-intermediate competitive binding assay on purified recombinant SHMT2; assay type: biochemical; conditions: purified SHMT2 5.5 μM, glycine 3.0 mM, 20 μM H4PteGlu, read-out: estimated inhibition constants (IC50)
T2 construct: made in house
T2 sequence (P34897 30-504): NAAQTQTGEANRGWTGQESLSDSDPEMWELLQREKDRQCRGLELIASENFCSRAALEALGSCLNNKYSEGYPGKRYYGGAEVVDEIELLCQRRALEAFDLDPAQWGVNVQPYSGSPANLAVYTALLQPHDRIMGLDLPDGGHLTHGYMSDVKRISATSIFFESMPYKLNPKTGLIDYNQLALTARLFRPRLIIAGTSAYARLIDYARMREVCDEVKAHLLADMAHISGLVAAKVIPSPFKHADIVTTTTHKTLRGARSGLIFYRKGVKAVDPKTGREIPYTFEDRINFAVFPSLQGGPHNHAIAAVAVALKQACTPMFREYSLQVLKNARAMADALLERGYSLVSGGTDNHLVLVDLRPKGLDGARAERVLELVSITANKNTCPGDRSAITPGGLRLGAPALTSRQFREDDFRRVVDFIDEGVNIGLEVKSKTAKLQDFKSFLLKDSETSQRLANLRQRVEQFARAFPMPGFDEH
Method: as §1, §2, §3

IC50 (SHMT1): 154 ± 14.4 µM | IC50 (SHMT2): 263 ± 48 µM
Structure (SMILES): CCC1(c2ccc(F)cc2)C(C#N)=C(N)Oc2[nH]nc(C)c21 (centres unmarked) [compound 2.2]
